The values below come from patent publication US9750817B2, “Amphotericin B derivatives” (priority 2015, dated 2017).

Values after ≈ are worked out from the molar mass of the structure shown.

In one series the test system is C. albicans (CBS562). Nature of the series: MIC of compound 6, AMB and FMOC-6. In kind it is cell-based, Candida albicans. As for the experimental part: (§1) Efficacy was evaluated by measuring minimum inhibitory concentration (MIC) and minimum fungicidal concentration (MFC) values for fungal isolates. Testing of isolates was performed according to the Clinical & Laboratory Standards Institute (CLSI) method. (CLSI. 2008. M27-A3 Reference method for broth dilution antifungal susceptibility testing of yeasts; Approved Standard—3rd edition. Clinical and Laboratory Standards Institute, Wayne). RPMI MOPS media was used throughout the experiment as growth and dilution media. Spores and yeast cells were harvested in 0.05% Tween from 24-48 h and cultures were grown in rich yeast extract-agar-glucose (YAG) medium (composed of: 0.5% w/v yeast extract, 1% w/v glucose, 10 millimolar (mM) MgCl2, supplemented with 0.1% v/v trace elements solution, and 0.2% v/v vitamin mix). The spores and the yeast cells were counted and diluted to a final concentration of 2.5×10^4 per ml. A stock solution of 5 mg/ml was prepared in dimethylsulfoxide for free AMB. Compounds 4 and 6 were prepared in sterile saline. Double dilutions of each drug were performed in 100 μL volume of RPMI-MOPS in 96 well plates beginning with a final concentration of 32 micrograms (μg)/well of each drug to 0.06 μg/well. 2500 spores or yeast cells were added to each well. Results were recorded 48 h post incubation at 37° C. […] The MFC was defined as the lowest drug concentration that yielded three or fewer colonies (i.e. 99% of the inoculum was killed).
(§2) In addition, the amine protected equivalent of compound 6 in which the amine of compound 6 was protected with an FMOC group was tested (designated FMOC-6) to determine MIC versus AMB and versus compound 6 against A. fumigatus (Af 293) and C. albicans (CBS562).

Series [1] deals with mouse embryonic fibroblasts (MEFs). Nature of the series: MTT viability assay in mouse embryonic fibroblasts. Format: cell-based. As for the experimental part:
Reference is made to FIG. 4C. Mouse embryonic fibroblasts were used in this example. 1×10^4 mouse embryonic fibroblasts (MEFs) per well were seeded in 96-well plates and incubated at 37° C. After 24 h the media was replaced with 100 μl culture medium containing serial dilutions of AMB, compounds 4 or 6, or left untreated. After 24 h, the media was replaced by fresh media (100 μl per well) containing 1 mg/ml MTT (3-(4,5-Dimethylthiazol-2-yl)-2,5-Diphenyltetrazolium Bromide, ((Biological Industries, Israel)) reagent and the cells were incubated for an additional 3 h at 37° C. MTT-formazan crystals were dissolved by the addition of 100 μl per well of extraction solution (20% SDS, 50% N,N-dimethyl formamide (DMF), pH=4.7) and incubation for 16 h at 37° C. Absorbance at 570 nm was recorded on a Biotek Synergy HT plate reader.
The results were expressed as the percentage of living cells relative to the untreated control and are depicted in FIG. 4C. The inhibition concentration (IC50) value is the concentration of the compound which inhibited cell growth by 50%.

Another series has as its system human erythrocytes. Put plainly: In-vitro toxicity (hemolysis) study. Format: cell-based. Particulars: 6 μg/ml; for toxicity to erythrocytes: assay conditions of FIG. 4B. How it is done: Reference is made to FIG. 4B. Fresh human erythrocytes were diluted 1:100 in PBS, and incubated in an Eppendorf tube while rotating slowly in the presence of 6 μg/ml of each of compound 4 and compound 6. Amphotericin B was used as positive control. Sterile double distilled water served as a control for 100% hemolysis. After 1, 3, 5 and 21 h, 20 μl of each test tube were removed and diluted in 180 μl PBS. Samples were centrifuged for 10 minutes at 1200 RPM and the optical density of the supernatant was measured at 425 nm.

Another series relates to Aspergillus terreus. Put plainly: MIC/MFC broth dilution (CLSI), clinical isolates. Format: cell-based. Particulars: listed as printed C. terreus, 1 isolate, 48 h at 37° C. As for the experimental part:
(§3) Isolates of Aspergillus fumigatus, Aspergillus flavus, Aspergillus terreus Aspergillus niger, Rhizopus oryzae, Candida albicans and Candida krusei were isolated from patients in Israeli hospitals and used for in vitro efficacy studies.
as §1

A further series relates to Aspergillus fumigatus. Put plainly: MIC/MFC broth dilution (CLSI), clinical isolates. In kind it is cell-based. The conditions noted are these: A. fumigatus, 4 isolates, 48 h at 37° C. As for the experimental part: as §3, §1
A general note: In broth dilution the organism is exposed to a series of concentrations in liquid medium.

For another series, the system named is Aspergillus flavus. Put plainly: MIC/MFC broth dilution (CLSI), clinical isolates. In kind it is cell-based. The conditions noted are these: A. Flavus, 3 isolates, 48 h at 37° C. How it is done:
as §3, §1

In the next series the test system is Candida krusei. Nature of the series: MIC/MFC broth dilution (CLSI), clinical isolates. Particulars: C. krusei, 3 isolates, 48 h at 37° C. Format: cell-based. As for the experimental part:
as §3, §1

The subject of a further series is Aspergillus niger. Nature of the series: MIC/MFC broth dilution (CLSI), clinical isolates. In kind it is cell-based. Particulars: A. niger, 3 isolates, 48 h at 37° C. As for the experimental part: as §3, §1
A further series deals with Candida albicans. Put plainly: MIC/MFC broth dilution (CLSI), clinical isolates. Format: cell-based. The conditions noted are these: C. albicans, 2 isolates, 48 h at 37° C. As for the experimental part:
as §3, §1

Another series relates to Rhizopus oryzae. Put plainly: MIC/MFC broth dilution (CLSI), clinical isolates. The conditions noted are these: 1 isolate, 48 h at 37° C. In kind it is cell-based. How it is done:
as §3, §1

Series [2] can be described thus: Solubility in double-distilled water. Format: physicochemical. Particulars: double-distilled water. As for the experimental part:
Physical characteristics of AMB derivatives and of AMB were tested, including solubility.

The next series deals with A. fumigatus (Af 293). Nature of the series: MIC of compound 6, AMB and FMOC-6. Format: cell-based, Aspergillus fumigatus. As for the experimental part: as §1, §2

As a reminder, the MIC is the smallest concentration in the dilution series that meets the test's criterion for growth inhibition. One may read the Solubility as how much of the substance goes into solution per volume. A lower Solubility goes with little dissolved substance. With `C[C@@H]1[C@H](O)[C@@H](C)/C=C/C=C/C=C/C=C/C=C/C=C/C=C/[C@H](O[C@@H]2O[C@H](C)[C@@H](O)[C@H](N)[C@@H]2O)C[C@@H]2O[C@](O)(C[C@@H](O)C[C@@H](O)[C@H](O)CC[C@@H](O)C[C@@H](O)CC(=O)O[C@H]1C)C[C@H](O)[C@H]2C(=O)O` [AMB, Amphotericin B], the MIC in the series on C. albicans (CBS562) was 0.25 µg/mL; against Aspergillus terreus it was 2 µg/mL (≈ 2.16 µM); against Aspergillus fumigatus, 0.25 to 1 µg/mL; with Aspergillus flavus, 0.5 to 1 µg/mL; against Candida krusei, 0.5 µg/mL (≈ 0.541 µM); against Aspergillus niger it was 0.5 to 1 µg/mL. For the same molecule, the figures for the MIC against Candida albicans, in the series with Rhizopus oryzae and with A. fumigatus (Af 293) were 0.25 µg/mL (≈ 0.271 µM), 0.25 µg/mL (≈ 0.271 µM) and 0.5 µg/mL, respectively. The “IC50 (concentration which inhibited cell growth by 50%)” value in series [1] (24 h exposure, MTT) came to 6.6 µg/mL. The hemolysis with human erythrocytes (after 3 h of agitation) is 76%. Further, in the series with human erythrocytes, the “toxicity to erythrocytes” value is listed as “very toxic”. Also, the MFC in the series on Aspergillus terreus is 4 µg/mL (≈ 4.33 µM); in the series with Aspergillus fumigatus it was 0.5 to 4 µg/mL; in the series with Aspergillus flavus, 0.5 to 1 µg/mL; in the series on Candida krusei it was 1 to 2 µg/mL; in the series with Aspergillus niger, 0.5 to 1 µg/mL; with Candida albicans it was 0.5 µg/mL (≈ 0.541 µM). The MFC with Rhizopus oryzae came out at 0.25 µg/mL (≈ 0.271 µM). This molecule gave a Solubility in [2] of under 1 µg/mL.
With `COC(=O)C1C(O)CC2(O)CC(O)CC(O)C(O)CCC(O)CC(O)CC(=O)OC(C)C(C)C(O)C(C)C=CC=CC=CC=CC=CC=CC=CC(OC3OC(C)C(O)C(NC(=O)CCOCCOCCOCCOCCOCCOCCOCCOCCN)C3O)CC1O2` (stereo not shown) [Compound 6, amphotericin B amide, methyl ester-PEG(8)-amine], the MIC in the series with C. albicans (CBS562) is 2 µg/mL; against Aspergillus terreus it was 16 µg/mL (≈ 11.8 µM); against Aspergillus fumigatus it was 1 to 8 µg/mL; against Aspergillus flavus it was 2 to 4 µg/mL; against Candida krusei, 2 µg/mL (≈ 1.47 µM); in the series on Aspergillus niger, 2 µg/mL (≈ 1.47 µM). The MIC in the series with Candida albicans came to 1 µg/mL (≈ 0.734 µM); in the series with Rhizopus oryzae it was 4 µg/mL (≈ 2.94 µM); with A. fumigatus (Af 293), 2 µg/mL. Besides, the “times less toxic than AMB” value in [1] (from IC50) is “at least 600 times”. Also, the “hemolytic activity” value with human erythrocytes (after 3 h of agitation) is “only slightly hemolytic”. In addition, the “toxicity to erythrocytes” value in the series with human erythrocytes is given as “negligible toxicity”. Moreover, the MFC against Aspergillus terreus is 16 µg/mL (≈ 11.8 µM); against Aspergillus fumigatus, 2 to 8 µg/mL; with Aspergillus flavus, 2 to 4 µg/mL; in the series on Candida krusei it was 4 µg/mL (≈ 2.94 µM); against Aspergillus niger, 2 µg/mL (≈ 1.47 µM); with Candida albicans, 2 µg/mL (≈ 1.47 µM). In addition, the MFC with Rhizopus oryzae came to 4 µg/mL (≈ 2.94 µM). In series [2], the Solubility was determined as 700 µg/mL (≈ 514 µM).
